The source of these data is publication PMC5893132, “Selective inhibition of histamine-evoked Ca^2+ signals by compartmentalized cAMP in human bronchial airway smooth muscle cells” (Cell Calcium, 2018).

The assay relates to histamine-evoked Ca^2+ signals in hBASMCs. The assay is described as follows: Histamine-evoked Ca2+ signals in populations of fluo-4-loaded hBASMCs. The note with it: HBSS. It counts as cell-based, human. The essentials: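 Serum-starved hBASMCs loaded with fluo-4-AM (2 μM, or FLIPR calcium 4 kit) with probenecid 2.5 mM; recordings at 20 °C in HEPES-buffered saline pH 7.3, sometimes Ca²⁺-free or with BAPTA. Fluorescence calibrated to [Ca²⁺]i (KD 345 nM); one concentration per well, logistic fits giving EC50, maximal response, Hill slope.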

Counter-ions that a name gives are not always drawn.

As for `CC(C)NC[C@H](O)c1ccc(O)c(O)c1` [isoproterenol, (−)-isoproterenol hydrochloride], the IC50 (Homo sapiens, added 5 min before histamine 10 μM, n = 4, read-out: pIC50 for inhibition of histamine-evoked Ca2+ signals (converted)) is 8.13 nM. Further, for the setting “after isoproterenol 10 μM, 5 min, n = 7, control 242 ± 15 nM”, the “maximal amplitude of the peak increase in [Ca2+]i evoked by histamine after pre-treatment” value amounted to 168 ± 19 nM.
